“Also recorded” adds a separate entry of the source.
Assays:
Format in all cases: cell-based
MCF-7 cells [1] = assay: Annexin V-FITC/PI apoptosis detection; conditions: MCF-7, at GI50, 24 h and 48 h
Text: (§1) To further investigate the ability of compounds (7b, 13c and 16a) to induce apoptosis, an Annexin V (conjugated to FITC) apoptosis detection kit was employed. This assay detects phosphatidylserine (PS) expressed on the surface of apoptotic cells and fluoresces green after interacting with the labelled Annexin V. During early apoptosis, membrane asymmetry is lost, and PS translocates from the cytoplasmic side of the membrane to the external leaflet. Propidium iodide (PI), the counter stain used in this assay, has the ability to cross only compromised membranes to intercalate into the DNA. Therefore, PI is used to detect the late stages of apoptosis by the presence of red fluorescence.
(§2) Apoptosis was determined by staining cells with Annexin V–fluorescein isothiocyanate (FITC) and counterstaining with propidium iodide (PI) using the Annexin V–FITC/PI apoptosis detection kit (BD PharMingen, San Diego, CA, USA) according to the manufacturer's instructions. […] The cells then were collected by trypsinization and 0.5 × 10^6 cells were washed twice with phosphate-buffered saline (PBS) and stained with 5 μl Annexin V–FITC and 5 μl PI in 1× binding buffer (BD PharMingen) for 15 minutes at room temperature in the dark. Analyses were performed using FACS Calibur flow cytometer (BD Biosciences, San Jose, CA).

MCF-7 cells [2] = assay: Cellular and nuclear morphology (light microscopy, Dapi staining); conditions: MCF-7, 0.32 µM, 24 and 48 h
Method: To further examine the apoptosis inducing effect of 7b, the cellular as well as nuclear morphological changes for MCF-7 cells treated with 7b (0.32 µM) were studied following Dapi staining. The effect of 7b on cell morphology was initially analysed with light microscopy.
(§3) MCF7 cells were cultured on sterile cover slips (Harvard Apparatus, 22 mm2) in sterile six well plates at a density of 2×10^5 cells/well. Twenty-four hours after seeding, cells were exposed to GI50 concentration of compound 7b in fresh serum-free medium. At the end of the exposure, cells attached to cover slips were imaged with a light inverted microscope or washed with PBS and fixed with 3.7% paraformaldhyde for 10 min, permeabilized with 0.1% Triton X-100 in TBST containing 0.01% Tween 20 for 10 min, and blocked for 1 h with 5% goat serum in TBST. The fixed and permeabilized cells were incubated with cleaved caspase-3 rabbit mAb (Cell signaling technology, MA), at a dilution of 1:500, in blocking solution overnight at 4 °C, followed by secondary Cy3-goat anti-Rabbit antibody (Jackson Immuno Research, West Grove, PA) 1:1000 dilution, in the blocking solution for 1 hour, at room temperature. 4',6'-diamidino-2-phenylindole, dihydrochloride (DAPI) (Sigma– Aldrich, St. Louis, MO) was used as counter stain to stain the DNA. […]

[3] = test system: cleaved caspase-3 in MCF-7 cells; assay: Cleaved caspase-3 immunostaining; conditions: MCF-7, 0.32 µM, 24 h and 48 h
Method: Caspase-3 is a member of the cysteine-aspartic acid protease (caspase) family. Sequential activation of caspases is considered as one of the important keys in cellular apoptosis process. […] Cleaved caspase-3 further activates a cascade of caspases that induce cell death.
as §3

HCT-116 cells [4] = assay: Cell-cycle analysis by flow cytometry; conditions: HCT-116, at GI50 concentration (1.20 µM), 24 h and 48 h
Method: The cells then were collected by trypsinization, washed with phosphate buffered saline (PBS), and fixed in ice-cold absolute alcohol. Thereafter, cells were stained, using Cycletest^TM Plus DNA Reagent Kit (BD Biosciences, San Jose, CA), according to the manufacturer’s instructions. Cell cycle distribution was determined using a FACS Calibur flow cytometer (BD Biosciences, San Jose, CA).

HCT-116 cells [5] = assay: Annexin V-FITC/PI apoptosis detection; conditions: HCT-116, at GI50, 24 h and 48 h
Text: as §1, §2

Row | SMILES | induction of apoptosis (Annexin-V positive cells), in words (MCF-7 cells [1]) | cellular and nuclear morphology (MCF-7 cells [2]) | cleaved caspase-3 protein expression [3] | effect on cell-cycle progression (HCT-116 cells [4]) | induction of apoptosis (Annexin-V positive cells), in words (HCT-116 cells [5])
1 | O=C(Nc1ccc(Cl)cc1)Nc1ccc(Oc2nncc3ccccc23)cc1 [Compound 7b, 1–(4-Chlorophenyl)-3–(4-(phthalazin-1-yloxy)phenyl)urea] | increased the percentage of Annexin-V positive cells indicating an early (lower right quadrant) or late (upper right quadrant) apoptosis in a time-dependent manner | deteriorated morphological changes including cell rounding, detachment and cellular fragmentation; also recorded: typical apoptotic characteristics; including condensation of chromatin (brightly stained cells), blubbing with the appearance of nuclear fragmentation | concurrent increase in cleaved caspase-3 expression level; also recorded: time-dependent increase in cleaved caspase-3 protein expression; also recorded: increase the expression of cleaved caspase-3 | – | –
2 | Clc1ccc(Nc2nnc(CNc3ccccc3)c3ccccc23)cc1 [Compound 16a, N-(4-Chlorophenyl)-4-((phenylamino)methyl)phthalazin-1-amine] | – | – | – | induce cell cycle arrest at S phase boundary; also recorded: significant action at both S phase and sub-G1 cell population | increased the percentage of Annexin-V positive cells in lower right quadrant indicating early apoptosis

— article PMC6691788, “Design and synthesis of phthalazine-based compounds as potent anticancer agents with potential antiangiogenic activity via VEGFR-2 inhibition” (Journal of Enzyme Inhibition and Medicinal Chemistry, 2019)
